Source: the supplement of paper PMC5770543
± gives the standard deviation.

Tests used:
[1] = tested on: Plasmodium falciparum 3D7; assay: % inhibition of schizont-to-ring transition vs DMSO; higher = more inhibition
How it was run: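 Schizont-to-ring transition inhibition compares new ring formation with that in vehicle controls. Synchronised P. falciparum schizonts (about 40–42 hours post-invasion, 1% parasitemia, 2.5% hematocrit, AlbuMAX-supplemented RPMI) were exposed to 1, 3 or 10 µM compound, after which rings were counted by Hoechst 33342 flow cytometry across three experiments.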

[2] = tested on: Toxoplasma gondii RH tachyzoites; assay: % growth inhibition vs DMSO (48 h luciferase); higher = more inhibition; conditions: 10 µM
[3] = biological target: Toxoplasma gondii RH tachyzoites; assay: EC50 growth inhibition (48 h luciferase)
[4] = tested on: Plasmodium falciparum 3D7; assay: EC50 growth inhibition (60 h, SYBR Green); conditions: stage: ring-stage start
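For % growth inhibition vs DMSO (48 h luciferase) in this document: tested in triplicate wells of 96-well plates on confluent HFF monolayers, with 1% DMSO wells as negative control in four replicates.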

SMILES	% inhibition of schizont-to-ring transition ([1]; 1 µM)	% inhibition of schizont-to-ring transition ([1]; 3 µM)	% inhibition of schizont-to-ring transition ([1]; 10 µM)	% growth inhibition [2]	EC50 growth inhibition [3]	EC50 growth inhibition [4]
FC(F)(F)c1ccc(Nc2nnnc3ccccc23)cc1	< 0%	4.32%	52.7%	83.5 ± 1.2%	681 nM	1020 nM
COc1cc(C(=O)Nc2ccc(-c3nc4ccccc4[nH]3)cc2)cc(OC)c1OC	< 0%	9.26%	43.1%	91.42 ± 0.58%	4730 nM	788 nM
CCOC(=O)c1c(C)n(-c2ccccc2)c2ccc(OC(=O)c3cc(OC)c(OC)c(OC)c3)cc12	11.1%	16.1%	27.7%	96.58 ± 0.65%	6360 nM	1600 nM
O=C(Nc1ccc(Cl)cc1C(=O)Nc1ccncc1)c1ccc(Cl)cc1Cl	3.75%	32.4%	62.5%	80.8 ± 4.7%	3950 nM	1280 nM
O=C(Nc1ccc(N2CCCCC2)c(Cl)c1)c1ccc(Br)o1	29.7%	39.7%	53%	82.4 ± 6.4%	7400 nM	812 nM
Cc1ccnc(NC(c2cccc(OCc3ccccc3)c2)c2ccc3cccnc3c2O)c1 (stereo unspecified)	17.5%	41.1%	62.9%	98.51 ± 0.34%	786 nM	886 nM
CCOC(=O)c1cnc2ccc(OC)cc2c1NCc1ccccc1	42%	45.3%	59.1%	97.7 ± 1.4%	1400 nM	6780 nM
CCN(CC)c1cc(C)c2cc(NC(=O)c3cccc(OC)c3)ccc2n1	25.4%	31.7%	56.8%	98.73 ± 0.42%	1810 nM	1300 nM
Cc1cc(N2CCCC2)nc(Nc2ccc(NC(=O)CCc3ccccc3)cc2)n1	55.6%	62.1%	67.5%	96.07 ± 0.93%	102 nM	139 nM
CCOc1ccc2nc(C)cc(Nc3ccc(Br)cc3)c2c1	28%	45.8%	44.9%	99.53 ± 0.2%	4410 nM	180 nM
CCCCNCC(O)(c1ccc(Cl)cc1)c1ccc(Cl)cc1	8.52%	48.1%	70.3%	97.55 ± 0.55%	6550 nM	527 nM
CCCCCCn1c(=N)n(CC(O)COc2cccc(C)c2)c2ccccc21 (stereo unspecified)	7.26%	18.9%	72.6%	99.65 ± 0.38%	2090 nM	1130 nM
COc1ccc(Nc2nc(NCc3ccccc3)c3ccccc3n2)cc1	26.4%	34.8%	48%	100.5 ± 0.45%	763 nM	104 nM
COc1cc(CNCCc2ccc(Cl)cc2)cc(OC)c1O	3.17%	4.67%	38.3%	51.4 ± 14%	5990 nM	1780 nM
Cc1sc(NC(=O)c2ccco2)c(C(c2cccnc2)N2CCC(Cc3ccccc3)CC2)c1C (stereo unspecified)	6.59%	41.7%	62.4%	99.83 ± 0.14%	1120 nM	833 nM
Cc1ccc(Cl)cc1N1CCN(CCCNC(=O)C2CCN(c3nc4ccccc4[nH]3)CC2)CC1	37.8%	50.8%	60.5%	98.63 ± 0.9%	3240 nM	920 nM
